Reference: patent US7883687B2, “15O-labeled monosaccharide and producing method thereof” (Astellas Pharma Inc., priority 2004, dated 2011)

Test: PET imaging in rat (Planar Positron Imaging System)
Details: injected from tail vein, integrated PET image from 15 min to 30 min after administration (FIG. 4A, 4B)
Experimental: Hydroxylation of 2,6-dideoxy-6-iodo-D-glucose and 6-iodo-6-deoxy-D-glucose was performed in the glass filter reactor as shown in FIG. 1. Sep-Pak cartridges were purchased from Waters. The cyclotron is OSCAR-12 (NKK/Oxford). The target gas consisted of 1.5% O2 in ^15N2. PET scans were obtained on Planar Positron Imaging System (Hamamatsu Photonics K.K.).
A solution of 2,6-dideoxy-6-iodo-D-glucose (274 mg, 1.0 mmol), tributyltin hydride (807 μl, 3.0 mmol) and AIBN (4.0 mg, 0.025 mmol) in PhCF3 (20.0 ml)/C10F18 (4.5 ml)/2-BuOH (3.0 ml) was placed in the reactor, which was on the automated synthetic apparatus (FIG. 3). Proton bombardment (beam current 50 μA) on target gas started (N2/O2=98.5/1.5, target gas pressure=6 kg/cm^2). The beginning of the bombardment was defined as 0 sec for convenience. Cold gas (N2/O2=[…], 180 ml/min) was provided and heating with temperature-controlled air (80° C.) started simultaneously at 2 min 40 sec. At 4.0 min, the target gas was evacuated from the targeting area in the cyclotron system (20 ml/min). The target gas was mixed with cold N2/O2 gas (target gas/N2/O2=20/177/3, 200 ml/min), and the resulting gas was then supplied to the reaction vessel. […] At 5 min 20 sec, the bombardment stopped. However, evacuation of the target gas continued. Triphenylphosphine (262 mg, 1.0 mmol in 1.5 ml of PhCF3) was added at 6.0 min. […]

O=CCC(O)C(O)C(O)C[15OH] [[^15O]2-DG, ^15[O]2-deoxy-D-glucose]
accumulation of tracer in integrated PET image: accumulation of [^15O]2-DG in heart, kidney and bladder
